US8754094B2, “Methods for heat shock protein dependent cancer treatment” (The Research Foundation of State University of New York, priority 2007, dated 2014)
Entries after “also recorded” stand apart in the source; their conditions may differ. Residues, ends and D or L forms follow the SMILES beside them. *: point of attachment. Cbz = O=C(OCc1ccccc1)*

Assays:
[1] = test system: EPCs from multiple myeloma patients; assay: MTS survival assay, endothelial progenitor cells (EPCs) from MM patients; type: cell-based, human; details: FIG. 36C
Experimental: (§1) For endothelial progenitor cells (EPC) outgrowth, bone marrow were further separated using Ficoll-Hypaque (Sigma Chemicals, St Louis, Mo.) density-gradient centrifugation and mononuclear cells were cultured (7×10^6 cells/well) in laminin-coated, 6-well plates (Becton Dickinson Labware, Bedford, Mass.) in EndoCult Basal Medium supplemented with 20% fetal bovine serum (StemCell Technologies, Vancouver, Canada) and antibiotics (100 U/ml penicillin G, 100 μg/ml streptomycin) until confluent. […] Outgrown EPCs were identified by the expression of endothelial and progenitor cell surface markers, including von Willebrand factor (a blood glycoprotein involved in coagulation), vascular endothelial-cadherin (where cadherins are a class of transmembrane proteins), vascular endothelial growth factor receptor-2, CD34, and CD133, as well as the absence of the MM marker CD38, determined by immunocytochemistry and flow cytometry. EPCs were passaged when they were 60-70% confluent by trypsin-ethylenediaminetetraacetic acid (EDTA) treatment (Invitrogen, Carlsbad, Calif.) onto 96-well culture plates (BD Biosciences, San Jose, Calif.). […]

[2] = test system: normal control BM, PBMC, and EPC populations; assay: MTS survival assay, normal control cells; type: cell-based; details: FIG. 36D
Experimental: MAL3-101 (the structure is shown as the final product in FIG. 12, in FIG. 13, and in FIG. 25B), the proteasome inhibitor MG-132 (A.G. Scientific, San Diego, Calif.) and the Hsp90 inhibitor 17-allylamino-17-demethoxygeldanamycin (17-AAG) (Calbiochem/EMD Biosciences, San Diego, Calif.) were dissolved in dimethylsulfoxide (DMSO; Sigma-Aldrich, St. Louis, Mo.), and stored at −20° C. Final concentration of DMSO was 0.03% and this was used to treat control cells. The MM cell lines examined were NCI-H929, RPMI-8226, and U266 (ATCC, Manassas, Va.). Normal peripheral blood mononuclear cells (PBMC) and bone marrow (BM) cells were obtained from StemCell Technologies (Vancouver, Canada). Primary MM cells and EPCs were from BM aspirates of newly-diagnosed patients following informed consent. MM cells were enriched to >95% CD138^+ cells by positive selection, using anti-CD138 MACS Microbeads according to the manufacturer's instructions (Miltenyi, San Diego, Calif.). […]

[3] = MTS survival assay, endothelial progenitor cells (EPCs) from MM patients; type: cell-based, human; details: human, EPCs of MM patients, FIG. 36C, read-out: reduction of viability of EPCs
Experimental: as §1

Row | Structure (SMILES) | reduction of viability of EPCs [1] [%] | cytotoxicity in normal control cells [2] | cytotoxicity [3] [%]
1 | CCCCCCN(C(=O)CCCCCN1C(=O)NC(c2ccc(-c3ccccc3)cc2)C(C(=O)OCc2ccccc2)=C1C)C(C(=O)NCCCC)c1ccc(OCC(=O)OC)c(C(=O)OC)c1 (stereo not drawn) [MAL3-101] | 10±14 | lack of cytotoxicity; also recorded: lack of sensitivity | –
2 | CC(C)C[C@@H](C=O)NC(=O)[C@H](CC(C)C)NC(=O)[C@H](CC(C)C)NC(=O)OCc1ccccc1 [MG-132, reference compound] (Cbz-Leu-Leu-Leu-aldehyde) | – | – | 16 ± 17
